Measured values: patent publication US4826817A, “Amino acid and hydroxyamino acid transporter compounds for therapeutic applications, process and use” (priority 1986, dated 1989)
Blank lines part the entries; values can stand above or below the compound they belong to.

Assays:
[1] = Plasma and brain levels of L-tyrosine after intraperitoneal injection to rats; conditions: rat; for concentration at 0.5 h / concentration at 2 h: ip, 1620 umol/kg
Experimental: Male CD-COBS rats (Charles River, Italy) weighing 200 g were used. The animals housed under standard conditions of light-dark cycle, temperature and humidity with free access to water and food. […] Controls received saline. Rates were killed by decapitation 30 and 120 min. after treatment. Plasma and brain were rapidly removed and kept at -20° C. until assay.

[2] = Plasma and brain levels of L-tyrosine after intravenous injection to rats; type: in vivo, rat (male CD-COBS); conditions: rat, i.v. 1.62 mmol/kg, Table I
Source text: Controls received saline.

SMILES: N[C@@H](Cc1ccc(O)cc1)C(=O)O [L-tyrosine]
concentration at 0.5 h ([1]; brain): 20200 ± 1750 ng/g
concentration at 2 h ([1]; brain): 21800 ± 1520 ng/g
brain L-tyrosine concentrations (in words) ([1]; i.p. 1.62 mmol/kg, both intervals (30 and 120 min), Table II, L-tyrosine p<0.05, O-L-lysyl-L-tyrosine p<0.01): significantly increased
concentration at 0.5 h ([1]; plasma): 16900 ± 2060 ng/g
concentration at 2 h ([1]; plasma): 12700 ± 2230 ng/g

brain L-tyrosine concentrations (in words) ([2]; both intervals (30 and 120 min)): significantly increased
SMILES: NCCCC[C@H](N)C(=O)Oc1ccc(C[C@H](N)C(=O)O)cc1 [O-L-lysyl-L-tyrosine]
Plasma L-tyrosine (in words) [2]: significantly raised by only 30 min. after the i.v. dose
